According to patent US12077503B2, “Substituted cyclic amides and their use as herbicides” (FMC CORPORATION, priority 2015, dated 2024):

How the values were obtained:
Format in all cases: in vivo
Kochia (Kochia scoparia) [1] = experiment: Test A preemergence; conditions: Preemergence; for Plant response rating, Kochia: 125 g ai/ha, visual injury after approximately 10 d, 0 to 100 scale where 0 is no effect and 100 is complete control; for Kochia plant response rating (0 to 100 scale, 0 is no effect, 100 is complete control): 500 g ai/ha, visual injury approx. 10 d
Summary of the method: (§1)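 Treatment is preemergence as a directed soil spray after planting, or postemergence at the one- to two-leaf stage, with test chemical in a non-phytotoxic solvent mixture plus surfactant. Plants stay in the greenhouse about 10 d before visual injury scoring on a 0 to 100 scale versus untreated controls.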

[2] = tested on: barnyardgrass (Echinochloa crus-galli); experiment: Test A preemergence; conditions: Preemergence; for Plant response rating, Barnyardgrass: 125 g ai/ha, visual injury after approximately 10 d, 0 to 100 scale where 0 is no effect and 100 is complete control; for Barnyardgrass plant response rating (0 to 100 scale, 0 is no effect, 100 is complete control): 500 g ai/ha, visual injury approx. 10 d
Summary of the method: as §1

[3] = tested on: giant foxtail (Setaria faberii); experiment: Test A preemergence; conditions: Preemergence; for Plant response rating, Foxtail, Giant: 125 g ai/ha, visual injury after approximately 10 d, 0 to 100 scale where 0 is no effect and 100 is complete control; for Foxtail, Giant plant response rating (0 to 100 scale, 0 is no effect, 100 is complete control): 500 g ai/ha, visual injury approx. 10 d
Summary of the method: as §1

[4] = tested on: pigweed (Amaranthus retroflexus); experiment: Test A preemergence; conditions: Preemergence; for Plant response rating, Pigweed: 125 g ai/ha, visual injury after approximately 10 d, 0 to 100 scale where 0 is no effect and 100 is complete control; for Pigweed plant response rating (0 to 100 scale, 0 is no effect, 100 is complete control): 500 g ai/ha, visual injury approx. 10 d
[5] = tested on: ragweed (common ragweed, Ambrosia elatior); experiment: Test A preemergence; conditions: Preemergence; for Plant response rating, Ragweed: 125 g ai/ha, visual injury after approximately 10 d, 0 to 100 scale where 0 is no effect and 100 is complete control; for Ragweed plant response rating (0 to 100 scale, 0 is no effect, 100 is complete control): 500 g ai/ha, visual injury approx. 10 d
Summary of the method: as §1

[6] = tested on: ryegrass, Italian (Italian ryegrass, Lolium multiflorum); experiment: Test A preemergence; conditions: Preemergence; for Plant response rating, Ryegrass, Italian: 125 g ai/ha, visual injury after approximately 10 d, 0 to 100 scale where 0 is no effect and 100 is complete control; for Ryegrass, Italian plant response rating (0 to 100 scale, 0 is no effect, 100 is complete control): 500 g ai/ha, visual injury approx. 10 d
Summary of the method: as §1

[7] = tested on: Galium (catchweed bedstraw, Galium aparine); experiment: Test A postemergence
Summary of the method: as §1

Kochia (Kochia scoparia) [8] = experiment: Test A postemergence
Summary of the method: as §1

[9] = tested on: barnyardgrass (Echinochloa crus-galli); experiment: Test A postemergence; conditions: for Barnyardgrass plant response rating: 125 g ai/ha, postemergence, visual injury rating on 0 to 100 scale (0 no effect, 100 complete control), approx. 10 d; for Plant response rating, Barnyardgrass: Postemergence, 500 g ai/ha, 0 to 100 scale where 0 is no effect and 100 is complete control
Summary of the method: as §1

[10] = tested on: blackgrass (Alopecurus myosuroides); experiment: Test A postemergence; conditions: for Blackgrass plant response rating: 125 g ai/ha, postemergence, visual injury rating on 0 to 100 scale (0 no effect, 100 complete control), approx. 10 d; for Plant response rating, Blackgrass: Postemergence, 500 g ai/ha, 0 to 100 scale where 0 is no effect and 100 is complete control
Summary of the method: as §1

corn (Zea mays) = experiment: Test A postemergence
Summary of the method: as §1

[11] = tested on: giant foxtail (Setaria faberii); experiment: Test A postemergence
Summary of the method: as §1

[12] = tested on: pigweed (Amaranthus retroflexus); experiment: Test A postemergence
Summary of the method: as §1

[13] = tested on: ragweed (common ragweed, Ambrosia elatior); experiment: Test A postemergence
Summary of the method: as §1

[14] = tested on: ryegrass, Italian (Italian ryegrass, Lolium multiflorum); experiment: Test A postemergence
Summary of the method: as §1

[15] = tested on: wheat (Triticum aestivum); experiment: Test A postemergence
Summary of the method: as §1

[16] = tested on: barnyardgrass (Echinochloa crus-galli); experiment: Test B flooded paddy test; conditions: Flood, 500 g ai/ha; 0 to 100 scale where 0 is no effect and 100 is complete control; 13 to 15 d
Summary of the method: (§2)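 Rating scale 0–100 (visual, vs untreated controls) after a 13–15 d greenhouse period; application to the flood layer, 3 cm above soil and maintained; plants at 2-leaf stage when treated.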

[17] = tested on: ducksalad (Heteranthera limosa); experiment: Test B flooded paddy test; conditions: Flood, 500 g ai/ha; 0 to 100 scale where 0 is no effect and 100 is complete control; 13 to 15 d
Summary of the method: as §2

rice (Oryra sativa) = experiment: Test B flooded paddy test; conditions: Flood, 500 g ai/ha; 0 to 100 scale where 0 is no effect and 100 is complete control; 13 to 15 d
Summary of the method: as §2

[18] = tested on: sedge, umbrella (small-flower umbrella sedge, Cyperus difformis); experiment: Test B flooded paddy test; conditions: Flood, 500 g ai/ha; 0 to 100 scale where 0 is no effect and 100 is complete control; 13 to 15 d
Summary of the method: as §2

[19] = 125 g ai/ha, postemergence, visual rating after approx. 10 d, 0 to 100 scale (0 no effect, 100 complete control)
[20] = Postemergence, 500 g ai/ha, 0 to 100 scale where 0 is no effect and 100 is complete control

| Structure (SMILES) | Plant response rating, Kochia (Kochia (Kochia scoparia) [1]) | Kochia plant response rating (0 to 100 scale, 0 is no effect, 100 is complete control) (Kochia (Kochia scoparia) [1]) | Plant response rating, Barnyardgrass [2] | Barnyardgrass plant response rating (0 to 100 scale, 0 is no effect, 100 is complete control) [2] | Plant response rating, Foxtail, Giant [3] | Foxtail, Giant plant response rating (0 to 100 scale, 0 is no effect, 100 is complete control) [3] | Plant response rating, Pigweed [4] | Pigweed plant response rating (0 to 100 scale, 0 is no effect, 100 is complete control) [4] | Plant response rating, Ragweed [5] | Ragweed plant response rating (0 to 100 scale, 0 is no effect, 100 is complete control) [5] | Plant response rating, Ryegrass, Italian [6] | Ryegrass, Italian plant response rating (0 to 100 scale, 0 is no effect, 100 is complete control) [6] | Plant response rating, Galium [7, 19] | Plant response rating, Galium [7, 20] | Plant response rating, Kochia (Kochia (Kochia scoparia) [8]; [19]) | Plant response rating, Kochia (Kochia (Kochia scoparia) [8]; [20]) | Barnyardgrass plant response rating [9] | Plant response rating, Barnyardgrass [9] | Blackgrass plant response rating [10] | Plant response rating, Blackgrass [10] | other results |
| --- | --- | --- | --- | --- | --- | --- | --- | --- | --- | --- | --- | --- | --- | --- | --- | --- | --- | --- | --- | --- | --- |
| O=C1NCC(c2ccc(Oc3ccccc3)cc2)C1C(=O)Nc1ccc(F)c(F)c1F (racemic) [Compound 537] | 0 | 0 | 0 | 0 | 0 | 0 | 0 | 0 | 0 | 0 | 0 | 0 | 0 | 0 | 0 | 0 | 0 | 0 | 0 | 0 | Plant response rating, Corn (corn (Zea mays); [19]): 0; Plant response rating, Corn (corn (Zea mays); [20]): 0; Plant response rating, Foxtail, Giant [11, 19]: 0; Plant response rating, Foxtail, Giant [11, 20]: 0; Plant response rating, Pigweed [12, 19]: 0; Plant response rating, Pigweed [12, 20]: 0; Plant response rating, Ragweed [13, 19]: 0; Plant response rating, Ragweed [13, 20]: 0; Plant response rating, Ryegrass, Italian [14, 19]: 0; Plant response rating, Ryegrass, Italian [14, 20]: 0; Plant response rating, Wheat [15, 19]: 0; Plant response rating, Wheat [15, 20]: 0; Plant response rating, Barnyardgrass [16]: 30; Plant response rating, Ducksalad [17]: 0; Plant response rating, Rice (rice (Oryra sativa)): 20; Plant response rating, Sedge, Umbrella [18]: 50 |
| O=C1NCC(c2ccc(Oc3ccccc3)cc2)C1C(=O)Nc1ccccc1Cl (racemic) [Compound 538] | 0 | 0 | 0 | 0 | 0 | 0 | 0 | 0 | 0 | 0 | 0 | 0 | 0 | 0 | 0 | 0 | 0 | 0 | 0 | 0 | Plant response rating, Corn (corn (Zea mays); [19]): 0; Plant response rating, Corn (corn (Zea mays); [20]): 0; Plant response rating, Foxtail, Giant [11, 19]: 0; Plant response rating, Foxtail, Giant [11, 20]: 0; Plant response rating, Pigweed [12, 19]: 0; Plant response rating, Pigweed [12, 20]: 0; Plant response rating, Ragweed [13, 19]: 0; Plant response rating, Ragweed [13, 20]: 0; Plant response rating, Ryegrass, Italian [14, 19]: 0; Plant response rating, Ryegrass, Italian [14, 20]: 0; Plant response rating, Wheat [15, 19]: 0; Plant response rating, Wheat [15, 20]: 0; Plant response rating, Barnyardgrass [16]: 0; Plant response rating, Ducksalad [17]: 0; Plant response rating, Rice (rice (Oryra sativa)): 0; Plant response rating, Sedge, Umbrella [18]: 0 |
